In brackets after ≈: the same amount, converted by molar mass. Like-named read-outs stand apart in the source and are kept apart here. Bounds are passed on as bounds.

In assay [1] the test system is methicillin-sensitive Staphylococcus aureus. The assay can be described thus: MIC by broth micro-dilution (CLSI), methicillin-sensitive S. aureus. The assay is classed as cell-based. The settings on record: MSSA S. aureus ATCC29213. For orientation: Broth dilution looks for growth in wells or tubes with falling amounts of substance.
The subject of assay [2] is carbapenem sensitive Escherichia coli. The assay can be described thus: MIC by broth micro-dilution (CLSI), carbapenem sensitive E. coli. The class given is cell-based.
Assay [3] has as its system carbapenemase producing K. pneumoniae. The assay can be described thus: MIC by broth micro-dilution (CLSI), carbapenemase producing K. pneumoniae. The assay is classed as cell-based, Klebsiella pneumoniae.
The test system of assay [4] is carbapenem sensitive Pseudomonas aeruginosa. The assay can be described thus: MIC by broth micro-dilution (CLSI), carbapenem sensitive P. aeruginosa. The assay is classed as cell-based.
[5] abbreviates: Staphylococcus aureus, ATCC 29213 / MSSA, read-out: MIC.
The mark [6] stands for this setting: Escherichia coli, ATCC25922, ESBL −ve E. coli ATCC25922, read-out: MIC.
The mark [7] stands for this setting: Klebsiella pneumoniae, ATCCBAA1705, KPC-2 K. pneumoniae ATCC BAA-1705, read-out: MIC.
[8] abbreviates: Pseudomonas aeruginosa, ATCC27853, Meropenem susceptible P. aeruginosa ATCC27853, read-out: MIC.
Where [9] appears, read: KPC-2 K. pneumoniae ATCC BAA-1705.
Setting [10] is: Meropenem susceptible P. aeruginosa ATCC27853.

As a reminder, the MIC is the smallest concentration in the dilution series that meets the test's criterion for growth inhibition. With `C[C@@H](NC(=O)Cn1cnnn1)[C@H]1C(=O)N2C(C(=O)O)=C(S[C@@H]3CN[C@H](C(=O)N4CC[C@@H](N)C4)C3)[C@H](C)[C@H]12` [Example 298, (4R,5S,6R)-6-((R)-1-(2-(1H-tetrazol-1-yl)acetamido)ethyl)-3-((3S,5S)-5-((R)-3-aminopyrrolidine-1-carbonyl)pyrrolidin-3-ylthio)-4-methyl-7-oxo-1-azabicyclo[3.2.0]hept-2-ene-2-carboxylic acid], the minimal inhibitory concentration (MIC) in assay [1] (setting [5]) turned out to be 1 µg/mL (≈ 1.87 µM); in assay [2] (setting [6]) it was 0.125 µg/mL (≈ 0.234 µM); in assay [3] (setting [7]), 1 µg/mL (≈ 1.87 µM); in assay [4] (setting [8]) it was 1 µg/mL (≈ 1.87 µM).
For `CO/N=C(\C(=O)N[C@H](C)[C@H]1C(=O)N2C(C(=O)O)=C(S[C@@H]3CN[C@H](C(=O)N(C)C)C3)[C@H](C)[C@H]12)c1csc(N)n1` [Example 325, (4R,5S,6R)-6-((R) - 1-((Z)-2-(2-aminothiazol-4-yl)-2-(methoxyimino)acetamido)ethyl)-3-((3S,5S)-5-(dimethylcarbamoyl)pyrrolidin-3-ylthio)-4-methyl-7-oxo-1-azabicyclo[3.2.0]hept-2-ene-2-carboxylic acid], the minimum inhibitory concentration (MIC) in assay [1] (setting [5]) was 8 µg/mL (≈ 14.1 µM); in assay [2] (setting [6]), 4 µg/mL (≈ 7.07 µM); in assay [3] (setting [7]), 64 µg/mL (≈ 113 µM); in assay [4] (setting [8]), over 128 µg/mL.
Turning to `C[C@@H](NC(=O)Cn1cnnn1)[C@H]1C(=O)N2C(C(=O)O)=C(S[C@@H]3CN[C@H](C(=O)N4CC(F)(CN)C4)C3)[C@H](C)[C@H]12` [Example 344, (4R,5S,6R)-6-((R) - 1-(2-(1H-tetrazol-1-yl)acetamido)ethyl)-3-((3S,5S)-5-(3-(aminomethyl)-3-fluoroazetidine-1-carbonyl)pyrrolidin-3-ylthio)-4-methyl-7-oxo-1-azabicyclo[3.2.0]hept-2-ene-2-carboxylic acid], the minimum inhibitory concentration (MIC) in assay [1] (setting [5]) was 16 µg/mL (≈ 29 µM); in assay [2] (setting [6]), 1 µg/mL (≈ 1.81 µM); in assay [3] (setting [7]) it was 16 µg/mL (≈ 29 µM); in assay [4] (setting [8]), 16 µg/mL (≈ 29 µM).
Regarding `C[C@@H](NC(=O)Cn1cnnn1)[C@H]1C(=O)N2C(C(=O)O)=C(S[C@@H]3CN[C@H](CNC(=N)N)C3)[C@H](C)[C@H]12` [Example 589, (4R,5S,6R)-6-((R)-1-(2-(1H-tetrazol-1-yl)acetamido)ethyl)-3-((3S,5S)-5-(guanidinomethyl)pyrrolidin-3-ylthio)-4-methyl-7-oxo-1-azabicyclo[3.2.0]hept-2-ene-2-carboxylic acid], the MIC amounted to 4 µg/mL (≈ 8.12 µM) in assay [1] (setting [5]), 0.5 µg/mL (≈ 1.02 µM) in assay [2] (setting [6]), 2 µg/mL (≈ 4.06 µM) in assay [3] (setting [7]) and 16 µg/mL (≈ 32.5 µM) in assay [4] (setting [8]).
For `CNCC(=O)N[C@H](C)[C@H]1C(=O)N2C(C(=O)O)=C(SC3CN(C4=NCCS4)C3)[C@H](C)[C@H]12` [Example 256] the same measures were 4 µg/mL (≈ 8.82 µM), 1 µg/mL (≈ 2.2 µM), 2 µg/mL (≈ 4.41 µM) and 32 µg/mL (≈ 70.5 µM).
With `C[C@@H](NC(=O)Cn1cnnn1)[C@H]1C(=O)N2C(C(=O)O)=C(S[C@@H]3CN[C@H](C(=O)N4CC(N)C(F)C4)C3)[C@H](C)[C@H]12` (single isomer, unassigned) [Example 479], the minimum inhibitory concentration (MIC) amounted to 8 µg/mL (≈ 14.5 µM) in assay [1], 0.25 µg/mL (≈ 0.453 µM) in assay [2] (ESBL −ve E. coli ATCC25922), 2 µg/mL (≈ 3.63 µM) in assay [3] (setting [9]) and 16 µg/mL (≈ 29 µM) in assay [4] (setting [10]).
As for `C[C@@H](NC(=O)Cn1cnnn1)[C@H]1C(=O)N2C(C(=O)O)=C(S[C@@H]3CN[C@H](C(=O)N4CCC(CNCC(N)=O)CC4)C3)[C@H](C)[C@H]12` [Example 437, (4R,5S,6R)-6-((R)-1-(2-(1H-tetrazol-1-yl)acetamido)ethyl)-3-((3S,5S)-5-(4-((2-amino-2-oxoethylamino)methyl)piperidine-1-carbonyl)pyrrolidin-3-ylthio)-4-methyl-7-oxo-1-azabicyclo[3.2.0]hept-2-ene-2-carboxylic acid], the minimal inhibitory concentration (MIC) in assay [1] (setting [5]) was 2 µg/mL (≈ 3.23 µM); in assay [2] (setting [6]), 0.25 µg/mL (≈ 0.404 µM); in assay [3] (setting [7]), 1 µg/mL (≈ 1.62 µM); in assay [4] (setting [8]), 2 µg/mL (≈ 3.23 µM).
Take `C[C@@H](NC(=O)Cn1cnnn1)[C@H]1C(=O)N2C(C(=O)O)=C(CN3C[C@H](NC(=N)N)[C@@H](O)C3)[C@H](C)[C@H]12` [Example 600, (4S,5R,6R)-6-((R)-1-(2-(1H-tetrazol-1-yl)acetamido)ethyl)-3-(((3S,4S)-3-guanidino-4-hydroxypyrrolidin-1-yl)methyl)-4-methyl-7-oxo-1-azabicyclo[3.2.0]hept-2-ene-2-carboxylic acid]: the MIC was determined as 0.5 µg/mL (≈ 1.05 µM) in assay [1] (setting [5]), 0.5 µg/mL (≈ 1.05 µM) in assay [2] (setting [6]), 4 µg/mL (≈ 8.39 µM) in assay [3] (setting [7]) and 16 µg/mL (≈ 33.6 µM) in assay [4] (setting [8]).
In the case of `C[C@@H](NC(=O)Cn1cnnn1)[C@H]1C(=O)N2C(C(=O)O)=C(S[C@@H]3CN[C@H](C(=O)N4CC(O)C(CN)C4)C3)[C@H](C)[C@H]12` (single isomer, unassigned) [Example 511], the MIC worked out at 4 µg/mL (≈ 7.1 µM) in assay [1], 0.25 µg/mL (≈ 0.444 µM) in assay [2] (ESBL −ve E. coli ATCC25922), 2 µg/mL (≈ 3.55 µM) in assay [3] (setting [9]) and 1 µg/mL (≈ 1.77 µM) in assay [4] (setting [10]).
Take `C[C@@H](NC(=O)Cn1cnnn1)[C@H]1C(=O)N2C(C(=O)O)=C(S[C@@H]3CN[C@H](C(=O)N4CCC5CN(CCN)CCC54)C3)[C@H](C)[C@H]12` (stereo partly drawn) [Example 489, (4R,5S,6R)-6-((R)-1-(2-(1H-tetrazol-1-yl)acetamido)ethyl)-3-((3S,5S)-5-(5-(2-aminoethyl)octahydro-1H-pyrrolo[3,2-c]pyridine-1-carbonyl)pyrrolidin-3-ylthio)-4-methyl-7-oxo-1-azabicyclo[3.2.0]hept-2-ene-2-carboxylic acid]: the MIC in assay [1] (setting [5]) was 4 µg/mL (≈ 6.49 µM); in assay [2] (setting [6]) it was 0.5 µg/mL (≈ 0.811 µM); in assay [3] (setting [7]), 1 µg/mL (≈ 1.62 µM); in assay [4] (setting [8]), 16 µg/mL (≈ 25.9 µM).
Regarding `C[C@@H](NC(=O)C(F)F)[C@H]1C(=O)N2C(C(=O)O)=C(SC[C@@H]3CNCCN3)[C@H](C)[C@H]12` [Example 289], the minimal inhibitory concentration (MIC) in assay [1] (setting [5]) was 8 µg/mL (≈ 19.1 µM); in assay [2] (setting [6]) it was 8 µg/mL (≈ 19.1 µM); in assay [3] (setting [7]), 16 µg/mL (≈ 38.2 µM); in assay [4] (setting [8]) it was over 128 µg/mL.
`C[C@@H](NC(=O)Cn1cnnn1)[C@H]1C(=O)N2C(C(=O)O)=C(S[C@@H]3CN[C@H](C(=O)N4C[C@@H](N)[C@@H](O)C4)C3)[C@H](C)[C@H]12` [Example 400, (4R,5S,6R)-6-((R)-1-(2-(1H-tetrazol-1-yl)acetamido)ethyl)-3-((3S,5S)-5-((3R,4S)-3-amino-4-hydroxypyrrolidine-1-carbonyl)pyrrolidin-3-ylthio)-4-methyl-7-oxo-1-azabicyclo[3.2.0]hept-2-ene-2-carboxylic acid]: the minimum inhibitory concentration (MIC) in assay [1] (setting [5]) came out at 4 µg/mL (≈ 7.28 µM); in assay [2] (setting [6]) it was 0.125 µg/mL (≈ 0.227 µM); in assay [3] (setting [7]), 1 µg/mL (≈ 1.82 µM); in assay [4] (setting [8]), 1 µg/mL (≈ 1.82 µM).
For `C[C@@H](NC(=O)Cn1cnnn1)[C@H]1C(=O)N2C(C(=O)O)=C(S[C@@H]3CN[C@H](C(=O)N4CCC(Nc5ncccn5)CC4)C3)[C@H](C)[C@H]12` [Example 370, (4R,5S,6R)-6-((R)-1-(2-(1H-tetrazol-1-yl)acetamido)ethyl)-4-methyl-7-oxo-3-((3S,5S)-5-(4-(pyrimidin-2-ylamino)piperidine-1-carbonyl)pyrrolidin-3-ylthio)-1-azabicyclo[3.2.0]hept-2-ene-2-carboxylic acid], the MIC in assay [1] (setting [5]) is 8 µg/mL (≈ 12.8 µM); in assay [2] (setting [6]) it was 4 µg/mL (≈ 6.39 µM); in assay [3] (setting [7]) it was 64 µg/mL (≈ 102 µM); in assay [4] (setting [8]), over 128 µg/mL.
The like results for `C[C@@H](NC(=O)Cn1nnnc1-c1cccs1)[C@H]1C(=O)N2C(C(=O)O)=C(S[C@@H]3CN[C@H](C(=O)N(C)C)C3)[C@H](C)[C@H]12` [Example 357, (4R,5S,6R)-3-((3S,5S)-5-(dimethylcarbamoyl)pyrrolidin-3-ylthio)-4-methyl-7-oxo-6-((R)-1-(2-(5-(thiophen-2-yl)-1H-tetrazol-1-yl)acetamido)ethyl)-1-azabicyclo[3.2.0]hept-2-ene-2-carboxylic acid] were, in that order, 2 µg/mL (≈ 3.48 µM), 1 µg/mL (≈ 1.74 µM), 32 µg/mL (≈ 55.7 µM) and over 128 µg/mL.
For `CNCC(=O)N[C@H](C)[C@H]1C(=O)N2C(C(=O)O)=C(S[C@@H]3CN[C@H](C(=O)N4CC[C@H](n5ncnn5)C4)C3)[C@H](C)[C@H]12` [Example 310, (4R,5S,6R)-3-((3S,5S)-5-((S)-3-(2H-tetrazol-2-yl)pyrrolidine-1-carbonyl)pyrrolidin-3-ylthio)-4-methyl-6-((R) - 1-(2-(methylamino)acetamido)ethyl)-7-oxo-1-azabicyclo[3.2.0]hept-2-ene-2-carboxylic acid] the same measures were 32 µg/mL (≈ 58.4 µM), 1 µg/mL (≈ 1.83 µM), 4 µg/mL (≈ 7.3 µM) and 64 µg/mL (≈ 117 µM).
For `COc1nnnn1CC(=O)N[C@H](C)[C@H]1C(=O)N2C(C(=O)O)=C(S[C@@H]3CN[C@H](C(=O)N(C)C)C3)[C@H](C)[C@H]12` [Example 385, (4R,5S,6R)-3-((3S,5S)-5-(dimethylcarbamoyl)pyrrolidin-3-ylthio)-6-((R)-1-(2-(5-methoxy-1H-tetrazol-1-yl)acetamido)ethyl)-4-methyl-7-oxo-1-azabicyclo[3.2.0]hept-2-ene-2-carboxylic acid] the same measures were 4 µg/mL (≈ 7.65 µM), 0.25 µg/mL (≈ 0.478 µM), 2 µg/mL (≈ 3.83 µM) and 64 µg/mL (≈ 122 µM).
`C[C@@H](NC(=O)Cn1cnnn1)[C@H]1C(=O)N2C(C(=O)O)=C(S[C@@H]3CN[C@H](C(=O)N4CC5C[C@@H]6C[C@]5(CN6)C4)C3)[C@H](C)[C@H]12` (stereo partly drawn) [Example 564, (4R,5S,6R)-6-((R)-1-(2-(1H-tetrazol-1-yl)acetamido)ethyl)-3-((3S,5S)-5-((1S,7R)-3,8-Diaza-tricyclo[5.2.1.01,5]decane-3-carbonyl)-pyrrolidin-3-ylthio)-4-methyl-7-oxo-1-azabicyclo[3.2.0]hept-2-ene-2-carbnxylic acid]: the MIC in assay [1] (setting [5]) was determined as 2 µg/mL (≈ 3.41 µM); in assay [2] (setting [6]), 0.125 µg/mL (≈ 0.213 µM); in assay [3] (setting [7]), 1 µg/mL (≈ 1.71 µM); in assay [4] (setting [8]), 1 µg/mL (≈ 1.71 µM).
